Values joined by “and” are separate entries in the source; they are usually repeats but may differ in a detail not shown here. Equal values may be shown once. Read-outs that look alike come from different tables or passages of the source.
Legend:
[1] = tested on: Rat2 fibroblasts stably transformed with a plasmid containing a CMV promotor controlled v-Src/Hu c-Src fusion gene; assay: Anchorage Independent Src-transformed Fibroblast Proliferation Assay
[2] = target: T1, c-Src (Homo sapiens, UniProt P12931); assay: c-Src Kinase Assay (ELISA format); type: biochemical
T1 construct: purchased Upstate Biotechnologies
Summary of the method: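 Partially purified Src preincubated with compound and biotinylated peptide 10 min at 30 °C in Tris-HCl pH 7.5 with MgCl2, EGTA, vanadate; ATP-started reaction ran 1 h at 30 °C, EDTA-stopped. Phosphopeptide captured on streptavidin, detected by HRP anti-phosphotyrosine; % inhibition = (1 − Abs/Abs(max)) × 100.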

[3] = read-out: anch-indep src-tx fib IC50, suspension growth, MTS on Day 5
[4] = Rattus norvegicus, Rat2, 120 h, read-out: anch-indep src-tx fib IC50, suspension growth, MTS on Day 5

Row | Compound | IC50 [2] | inhibition at 0.01 µM ([2]; at 10 nM) | inhibition at 0.1 µM ([2]; at 100 nM) | IC50 [1, 3] | IC50 [1, 4]
1 | 4-(2,4-Dichloro-5-methoxyanilino)-7-{5-[(4-hydroxy-1-piperidinyl)methyl]-2-thienyl}-3-quinolinecarbonitrile [Example 89] | 0.52 nM and 0.84 nM |  |  | 90 nM | 
2 | COc1cc(Nc2c(C#N)cnc3cc(-c4ccc(CCCCN5CCOCC5)s4)ccc23)c(Cl)cc1Cl [Example 22, 4-(2,4-Dichloro-5-methoxyanilino)-7-{5-[4-(4-morpholinyl)butyl]-2-thienyl}-3-quinolinecarbonitrile] | 6.8 nM |  |  |  | 600 nM
3 | CCN(CC)Cc1ccc(-c2ccc3c(Nc4cc(OC)c(Cl)cc4Cl)c(C#N)cnc3c2)cc1 [Example 87, 4-(2,4-Dichloro-5-methoxyanilino)-7-{4-[(diethylamino)methyl]phenyl}-3-quinolinecarbonitrile] | 0.46 nM |  |  |  | 220 nM
4 | COc1cc(Nc2c(C#N)cnc3cc(-c4ccc(CN5CCC(CC(=O)O)CC5)cc4)ccc23)c(Cl)cc1Cl [Example 100, (1-{4-[3-Cyano-4-(2,4-dichloro-5-methoxyanilino)-7-quinolinyl]benzyl}-4-piperidinyl)acetic acid] | 0.57 nM |  |  | 400 nM | 340 nM
5 | COc1cc(Nc2c(C#N)cnc3cc(-c4ccc(CN5CCOCC5)n4C)ccc23)c(Cl)cc1Cl [Example 70, 4-(2,4-Dichloro-5-methoxyanilino)-7-[1-methyl-5-(4-morpholinylmethyl)-1H-pyrrol-2-yl]-3-quinolinecarbonitrile] | 25 nM |  |  |  | 6000 nM
6 | CCOC(=O)CC1CCN(Cc2ccc(-c3ccc4c(Nc5cc(OC)c(Cl)cc5Cl)c(C#N)cnc4c3)cc2)CC1 [Example 144, ethyl (1-{4-[3-cyano-4-(2,4-dichloro-5-methoxyanilino)-7-quinolinyl]benzyl}-4-piperidinyl)acetate] | 4 nM |  |  |  | 92 nM
7 | CCOC(=O)C1CCCCN1Cc1ccc(-c2ccc3c(Nc4cc(OC)c(Cl)cc4Cl)c(C#N)cnc3c2)cc1 (stereo not drawn) [Example 145, ethyl 1-{4-[3-cyano-4-(2,4-dichloro-5-methoxyanilino)-7-quinolinyl]benzyl}-2-piperidinecarboxylate] |  | 17% |  |  | > 10000 nM
8 | COc1cc(Nc2c(C#N)cnc3cc(-c4ccc(CN(C)C)cc4)ccc23)c(Cl)cc1Cl [Example 86, 4-(2,4-Dichloro-5-methoxyanilino)-7-{4-[(dimethylamino)methyl]phenyl}-3-quinolinecarbonitrile] | 1.1 nM |  |  |  | 210 nM
9 | COc1cc(Nc2c(C#N)cnc3cc(-c4ccc(CNCCc5ccccn5)cc4)ccc23)c(Cl)cc1Cl [Example 229, 4-(2,4-dichloro-5-methoxyanilino)-7-[4-({[2-(2-pyridinyl)ethyl]amino}methyl)phenyl]-3-quinolinecarbonitrile] | 2.3 nM |  |  |  | 450 nM
10 | COC(=O)C1CCN(Cc2ccc(-c3ccc4c(Nc5cc(OC)c(Cl)cc5Cl)c(C#N)cnc4c3)nc2)CC1 [Example 176, 1-{6-[3-cyano-4-(2,4-dichloro-5-methoxyphenylamino)-quinolin-7-yl]-pyridin-3-ylmethyl}piperidine-4-carboxylic acid methyl ester] | 1.7 nM |  |  |  | 90 nM
11 | COc1cc(Nc2c(C#N)cnc3cc(-c4csc(CN5CCOCC5)c4)ccc23)c(Cl)cc1Cl [Example 24, 4-(2,4-Dichloro-5-methoxyanilino)-7-[5-(4-morpholinylmethyl)-3-thienyl]-3-quinolinecarbonitrile] | 2.1 nM and 3.7 nM |  |  | 180 nM | 
12 | COc1cc(Nc2c(C#N)cnc3cc(-c4cccn4C(=O)OC(C)(C)C)ccc23)c(Cl)cc1Cl [Example 164, tert-butyl 2-[3-cyano-4-(2,4-dichloro-5-methoxyanilino)-7-quinolinyl]-1H-pyrrole-1-carboxylate] | > 1000 nM |  |  |  | > 10000 nM
13 | COc1cc(Nc2c(C#N)cnc3cc(-c4cnc(CN5CCOCC5)n4C)c(OC)cc23)c(Cl)cc1Cl [Example 232, 4-(2,4-dichloro-5-methoxyanilino)-6-methoxy-7-[1-methyl-2-(4-morpholinylmethyl)-1H-imidazol-5-yl]-3-quinolinecarbonitrile] | 78 nM |  |  |  | 3500 nM
14 | COc1cc(Nc2c(C#N)cnc3cc(-c4cccc(CN5CCN(C)CC5)c4)ccc23)c(Cl)cc1Cl [Example 113, 4-(2,4-Dichloro-5-methoxyanilino)-7-{3-[(4-methyl-1-piperazinyl)methyl]phenyl}-3-quinolinecarbonitrile] | 10 nM |  |  |  | 1400 nM
15 | COc1cc(Nc2c(C#N)cnc3cc(-c4ccc(CNCCS(=O)(=O)c5ccccc5)o4)ccc23)c(Cl)cc1Cl [Example 58, 4-(2,4-Dichloro-5-methoxyanilino)-7-[5-({[2-(phenylsulfonyl)ethyl]amino}methyl)-2-furyl]-3-quinolinecarbonitrile] | 11 nM |  |  |  | 5100 nM
16 | COc1cc(Nc2c(C#N)cnc3cc(C#Cc4ccccn4)ccc23)c(Cl)cc1Cl [Example 91, 4-(2,4-Dichloro-5-methoxyanilino)-7-[2-(2-pyridinyl)ethynyl]-3-quinolinecarbonitrile] | 3.1 nM |  |  |  | > 10000 nM
17 | COc1cc(Nc2c(C#N)cnc3cc(C#CCN4CCOCC4)c(OC)cc23)c(Cl)cc1Cl [Example 166, 4-(2,4-dichloro-5-methoxyanilino)-6-methoxy-7-[3-(4-morpholinyl)-1-propynyl]-3-quinoline-carbonitrile] | 5.5 nM |  |  |  | 720 nM
18 | COc1cc(Nc2c(C#N)cnc3cc(-c4ccc(-c5nnn[nH]5)cc4)ccc23)c(Cl)cc1Cl [Example 105] | 10 nM |  |  | 5900 nM | > 10000 nM
19 | N#Cc1cnc2cc(C#CCCCN3CCOCC3)ccc2c1Nc1ccc(Cl)cc1Cl [Example 11, 4-(2,4-Dichloroanilino)-7-[5-(4-morpholinyl)-1-pentynyl]-3-quinolinecarbonitrile] | 43 nM |  |  |  | > 10000 nM
20 | COc1ccc(C#Cc2ccc3c(Nc4cc(OC)c(Cl)cc4Cl)c(C#N)cnc3c2)cc1 [Example 90, 4-(2,4-Dichloro-5-methoxyanilino)-7-[2-(4-methoxyphenyl)ethynyl]-3-quinolinecarbonitrile] |  |  | 10% |  | > 10000 nM
21 | COc1cc(Nc2c(C#N)cnc3cc(-c4ccc(CN5CCOCC5)o4)ccc23)c(Cl)cc1Cl [Example 53, 4-(2.4-Dichloro-5-methoxyanilino)-7-[5-(4-morpholinylmethyl)-2-furyl]-3-quinolinecarbonitrile] | 2.9 nM |  |  |  | 250 nM

Further lines, with some results ahead:

Row | IC50 [2] | inhibition at 0.01 µM ([2]; at 10 nM) | inhibition at 0.1 µM ([2]; at 100 nM) | Compound | IC50 [1, 3] | IC50 [1, 4]
22 | 26 nM |  |  | COc1cc(Nc2c(C#N)cnc3cc(C#CCO)ccc23)c(Cl)cc1Cl [Example 143, 4-(2,4-dichloro-5-methoxyanilino)-7-(3-hydroxy-1-propynyl)-3-quinolinecarbonitrile] |  | > 10000 nM
23 | 12 nM and 16 nM |  |  | COc1cc(Nc2c(C#N)cnc3cc(-c4csc(CN5CCOCC5)c4)ccc23)c(C)cc1Cl [Example 167, 4-(4-chloro-5-methoxy-2-methylanilino)-7-[5-(4-morpholinylmethyl)-3-thienyl]-3-quinolinecarbonitrile] |  | 900 nM
24 | 4.1 nM |  |  | COc1cc(Nc2c(C#N)cnc3cc(-c4ccc(CN5CCOCC5)cc4)ccc23)c(Cl)cc1F [Example 235, 4-(2-chloro-4-fluoro-5-methoxyanilino)-7-[4-(4-morpholinylmethyl)phenyl]-3-quinolinecarbonitrile] |  | 790 nM
25 | 7 nM |  |  | COc1cc(Nc2c(C#N)cnc3cc(-c4ccc(CN5CCOCC5)c(CN5CCOCC5)c4)ccc23)c(Cl)cc1C [Example 133, 7-[3,4-bis(4-morpholinylmethyl)phenyl]-4-(2-chloro-5-methoxy-4-methylanilino)-3-quinolinecarbonitrile] |  | 730 nM
26 | 7.2 nM |  |  | COc1cc(Nc2c(C#N)cnc3cc(-c4ccc(CN5CCOCC5)cc4)ccc23)c(Cl)cc1C [Example 234, 4-(2-chloro-5-methoxy-4-methylanilino)-7-[4-(4-morpholinylmethyl)phenyl]-3-quinolinecarbonitrile] |  | 720 nM
27 | 3 nM |  |  | COc1cc(Nc2c(C#N)cnc3cc(-c4ccc(CNCCS(C)(=O)=O)cc4)ccc23)c(Cl)cc1Cl [Example 88, 4-(2,4-Dichloro-5-methoxyanilino)-7-[4-({[2-(methylsulfonyl)ethyl]amino}methyl)phenyl]-3-quinolinecarbonitrile] |  | 850 nM
28 | 19 nM |  |  | COc1cc(Nc2c(C#N)cnc3cc(-c4ccc(CN5CCOCC5)cc4)c(OC)cc23)c(Cl)cc1Cl [Example 37, 4-(2,4-Dichloro-5-methoxyanilino)-6-methoxy-7-[4-(4-molpholinylmethyl)phenyl]-3-quinolinecarbonitrile] | 1490 nM | 1590 nM
29 | 240 nM and 200 nM |  |  | COc1cc(Nc2c(C#N)cnc3cc(C#Cc4ccccc4)ccc23)c(Cl)cc1Cl [Example 140, 4-(2,4-dichloro-5-methoxyanilino)-7-(2-phenylethynyl)-3-quinolinecarbonitrile] |  | > 10000 nM
30 | 24 nM |  |  | COc1cc(Nc2c(C#N)cnc3cc(-c4ccc(CN5CCN(CCO)CC5)o4)ccc23)c(Cl)cc1Cl [Example 75, 4-(2,4-Dichloro-5-methoxyanilino)-7-(5-{[4-(2-hydroxyethyl)-1-piperazinyl]methyl}-2-furyl)-3-quinolinecarbonitrile] |  | 290 nM
31 | 13 nM and 6.6 nM |  |  | COc1cc(Nc2c(C#N)cnc3cc(-c4ccc(CN5CCS(=O)(=O)CC5)cc4)ccc23)c(Cl)cc1Cl [Example 150, 4-[(2,4-dichloro-5-methoxyphenyl)amino]-7-{4-[(1,1-dioxido-4-thiomorpholinyl)methyl]phenyl}-3-quinolinecarbonitrile] | 520 nM | 500 nM

Source: patent EP1268431B1 (Wyeth, priority 2000, dated 2001)
